Assay results from article PMC10525924, “Engineering and Purification of Microcin C7 Variants Resistant to Trypsin and Analysis of Their Biological Activity” (Antibiotics, 2023).
Values after ≈ are worked out from the molar mass of the structure shown. Where a SMILES comes first, the peptide text is derived from it.

Columns and labels:
[1] = Remaining amount by RP-HPLC after chymotrypsin treatment; format: in vitro ADME; details: isolated enzyme chymotrypsin; chymotrypsin treated for 3 h; read-out RP-HPLC; Table S2
Procedure: (§3) To test whether the variants were tolerant to trypsin or other digestive enzymes, the amount of the remaining McC and its analogues remaining was determined by RP-HPLC after trypsin, pepsin, and chymotrypsin treated for 3 h (Table S2), and the inhibition zones of trypsin-treated variants were tested using the same method (Table 2).

[2] = system: Yej^+rimL^− strain; format: cell-based; details: HPLC-purified variants; microdilution in LB, 96-well; 0.125 to 100 µg/mL; 1.0 × 10^5 CFU/mL; 37 °C 24 h; absorbance 600 nm; triplicate
Procedure: To accurately characterize the bacteriostatic abilities of the variants, the MICs of the pure McC variants toward the McCsensitive strain Yej^+rimL^− were determined. The MICs of all variants were lower than that of wild-type McC. From smallest to largest MIC, the above five variants were in the following order: R2A, R2T, R2Q, R2S, and R2H. […] Although the diameter of the inhibitory zone of R2M was smaller than those of the above five variants, the bacteriostatic ability of R2M was second only to R2T/R2Q, and the MIC was 50 μg/mL.
(§1) The fermentation supernatants and pure products were used to characterize the bacteriostatic effects of McC variants by the agar diffusion and microdilution methods. Yej^+rimL^− and E. coli K88 indicator bacteria were applied. The serotype of E. coli K88 was O149:K91, K88ac, a clinically isolated strain, and provided by the College of Veterinary Medicine, China Agricultural University. The indicated bacteria were diluted to 1 × 10^5 CFU/mL and added to plate medium cooled to 50 °C. Two hundred microliters of supernatants were added to each dish, and diffusion was performed at 4 °C for 1 h. After incubation at 37 °C for 24 h, the diameters of the inhibition zones were determined. One hundred microliters of 0.25 μg/mL chloramphenicol was used as a control. The MICs of the pure McC variants were determined by microdilution in a sterilized 96-well microplate. The McC variants were serially diluted 2 times in 96-well microplates with LB medium. The concentrations of the McC variants ranged from 0.125 to 100 µg/mL. Each well was inoculated with 10 μL of overnight bacterial culture at a concentration of 1.0 × 10^5 CFU/mL and incubated at 37 °C for 24 h. A microplate reader was used to automatically observe changes in absorbance at 600 nm in order to monitor bacterial growth. A positive control group (including inoculated medium) and a negative control group (with medium only) were included. The MIC was determined as the lowest concentration of McC variant that inhibited bacterial growth (preventing an increase in the absorbance reading). All tests were performed in triplicate.

[3] = system: Yej^+rimL^− strain; assay: organism not typed; format: cell-based; details: for Diameters of the inhibition zones, Trypsin-Untreated Group, Yej^+rimL^− / Diameters of the inhibition zones, Trypsin-Treated Group, Yej^+rimL^− / bacteriostatic activity after trypsin treatment, Yej^+rimL^−: agar diffusion; for Diameters of the inhibition zones, Trypsin-Untreated Group, Yej^+rimL^−: 200 μL fermentation supernatant, 1 × 10^5 CFU/mL, 4 °C 1 h then 37 °C 24 h, chloramphenicol 100 μL of 0.25 μg/mL; for Diameters of the inhibition zones, Trypsin-Untreated Group, Yej^+rimL^− / Diameters of the inhibition zones, Trypsin-Treated Group, Yej^+rimL^−: dash = no zone; for Diameters of the inhibition zones, Trypsin-Treated Group, Yej^+rimL^− / bacteriostatic activity after trypsin treatment, Yej^+rimL^−: supernatant treated with trypsin 50 μg/mL, 37 °C, 3 h; for Diameters of the inhibition zones, Trypsin-Treated Group, Yej^+rimL^−: pH 6.8, 37 °C 24 h
From the text: To analyze the antimicrobial ability of the variants, we measured the inhibition zones of all 21 variants by the agar diffusion method. The peptide moiety of McC was recognized by a YejABEf-peptide transporter. The rimL contains an acetyltransferase domain homologous to MccE which can detoxify and provide resistance to McC [17]. The overexpression of the YejABEF gene cluster and rimL gene knockout made the strain hypersensitive to McC. Therefore, the Yej^+rimL^− strain was selected as the sensitive indicator bacterial strain.
(§2) The pH was adjusted to 6.8.
as §1

[4] = Remaining amount by RP-HPLC after pepsin treatment; format: in vitro ADME; details: isolated enzyme pepsin; pepsin treated for 3 h; read-out RP-HPLC; Table S2
Procedure: as §3

[5] = HPLC retention time according to hydrophobicity; format: physicochemical; details: chromatographic, C18 5 μm 9.4 × 250 mm; A 0.1% trichloroacetic acid, B 0.1% trichloroacetic acid with 90% acetonitrile; linear 5% B to 50% B; 1 mL/min; 35 °C; 280 nm; varies according to hydrophobicity
Procedure: To find the separation peaks of the variants, wildtype McC and blank control fermentation broth samples were tested by HPLC. The separation peaks with obvious differences (those with retention times of 11 min and 17 min) were purified and the antimicrobial activity was determined. […] Therefore, the molecular weight was further analyzed by mass spectrometry, and the separation peak at approximately 17 min was confirmed to be that of the desired purified McC. Since the mutations in this study involved only one amino acid and had few effects on the properties of the peptides, we predicted that the separation peaks of the variants should fluctuate around approximately 17 min according to their hydrophobicity. […] The purity of the purified variants was determined by HPLC to be greater than 80% (Table 3).
The lyophilized supernatants were dissolved in deionized water, filtered through 0.22 μm aqueous-phase filter membranes, and purified by high-performance liquid chromatography (HPLC, Agilent Technologies Inc., Palo Alto, CA, USA) with C18 column (5 μm 9.4 × 250 mm, Agilent Technologies Inc., Palo Alto, CA, USA). The mobile phase was composed of 0.1% (v/v) trichloroacetic acid (solvent A) and 0.1% (v/v) trichloroacetic acid with 90% (v/v) acetonitrile (solvent B). A linear gradient from 95% A/5% B to 50% A/50% B was used with a flow rate of 1 mL/min, a sample volume of 10 μL, a column temperature of 35 °C, and a detection wavelength of 280 nm. Electrospray ionization mass spectrometry (ESI-MS) was used to compare the McC variant masses with the expected masses. The relationships between the relative abundances and the mass-to-charge ratios (m/z) of the ions were determined to confirm the identities of the experimentally produced McC variants.

[6] = system: E. coli K88; assay: microbe, parasite or virus in culture; format: cell-based; details: for Diameters of the inhibition zones, Trypsin-Untreated Group, K88: 200 μL fermentation supernatant, 1 × 10^5 CFU/mL, 4 °C 1 h then 37 °C 24 h, chloramphenicol 100 μL of 0.25 μg/mL
Procedure: as §2, §1

SMILES	remaining at 3 h [1] [%]	MIC [2] [µg/mL]	Diameters of the inhibition zones, Trypsin-Untreated Group, Yej^+rimL^− [3] [mm]	Diameters of the inhibition zones, Trypsin-Treated Group, Yej^+rimL^− [3] [mm]	remaining at 3 h [4] [%]	Retention Time [5] [min]	bacteriostatic activity after trypsin treatment, Yej^+rimL^− [3]	Diameters of the inhibition zones, Trypsin-Untreated Group, K88 ([6]; agar diffusion, dash = no zone) [mm]	zone of inhibition at 0.25 µg/mL ([3]; read-out: Diameters of the inhibition zones, Trypsin-Untreated Group, Yej^+rimL^−) [mm]	zone of inhibition at 0.25 µg/mL ([6]; Escherichia coli, K88, read-out: Diameters of the inhibition zones, Trypsin-Untreated Group, K88) [mm]	Diameters of the inhibition zones, Trypsin-Treated Group, K88 ([6]; supernatant treated with trypsin 50 μg/mL, 37 °C, 3 h, pH 6.8, agar diffusion, 37 °C 24 h, dash = no zone) [mm]
CSCC[C@H](NC=O)C(=O)N[C@@H](CC(C)C)C(=O)N[C@H](C(=O)NCC(=O)N[C@@H](CC(N)=O)C(=O)N[C@@H](C)C(=O)N[C@@H](CC(=O)O)C(=O)NP(=O)(OCCCN)OC[C@H]1O[C@@H](n2cnc3c(N)ncnc32)[C@H](O)[C@@H]1O)[C@@H](C)O (some centres unmarked) [R2L] (HELM PEPTIDE1{[O=C[*:2]].M.L.T.G.N.A.[NCCCOP(=O)(NC(=O)[C@H](CC(=O)O)N[*:1])OC[C@H]1O[C@@H](n2cnc3c(N)ncnc32)[C@H](O)[C@@H]1O]}$$$$V2.0)	39.2 ± 0.75	>100	14.40	0	79.25 ± 0.62	19.425	–	–	–	–	–
CSCC[C@H](NC=O)C(=O)N[C@H](C(=O)N[C@H](C(=O)NCC(=O)N[C@@H](CC(N)=O)C(=O)N[C@@H](C)C(=O)N[C@@H](CC(=O)O)C(=O)NP(=O)(OCCCN)OC[C@H]1O[C@@H](n2cnc3c(N)ncnc32)[C@H](O)[C@@H]1O)[C@@H](C)O)C(C)C (some centres unmarked) [R2V] (HELM PEPTIDE1{[O=C[*:2]].M.V.T.G.N.A.[NCCCOP(=O)(NC(=O)[C@H](CC(=O)O)N[*:1])OC[C@H]1O[C@@H](n2cnc3c(N)ncnc32)[C@H](O)[C@@H]1O]}$$$$V2.0)	39.1 ± 1.05	50 (≈ 44.6 µM)	21.34	14.62	79 ± 1.24	18.151	exhibited antibacterial effects	–	–	–	–
CSCC[C@H](NC=O)C(=O)N[C@@H](CCCCN)C(=O)N[C@H](C(=O)NCC(=O)N[C@@H](CC(N)=O)C(=O)N[C@@H](C)C(=O)N[C@@H](CC(=O)O)C(=O)NP(=O)(OCCCN)OC[C@H]1O[C@@H](n2cnc3c(N)ncnc32)[C@H](O)[C@@H]1O)[C@@H](C)O (some centres unmarked) [R2K] (HELM PEPTIDE1{[O=C[*:2]].M.K.T.G.N.A.[NCCCOP(=O)(NC(=O)[C@H](CC(=O)O)N[*:1])OC[C@H]1O[C@@H](n2cnc3c(N)ncnc32)[C@H](O)[C@@H]1O]}$$$$V2.0)	41.4 ± 0.73	–	20.91	0	87.69 ± 0.68	–	–	16.95	–	–	–
CSCC[C@H](NC=O)C(=O)N[C@@H](Cc1ccccc1)C(=O)N[C@H](C(=O)NCC(=O)N[C@@H](CC(N)=O)C(=O)N[C@@H](C)C(=O)N[C@@H](CC(=O)O)C(=O)NP(=O)(OCCCN)OC[C@H]1O[C@@H](n2cnc3c(N)ncnc32)[C@H](O)[C@@H]1O)[C@@H](C)O (some centres unmarked) [R2F] (HELM PEPTIDE1{[O=C[*:2]].M.F.T.G.N.A.[NCCCOP(=O)(NC(=O)[C@H](CC(=O)O)N[*:1])OC[C@H]1O[C@@H](n2cnc3c(N)ncnc32)[C@H](O)[C@@H]1O]}$$$$V2.0)	41.1 ± 0.98	–	13.05	10.95	82.3 ± 0.94	–	–	14.34	–	–	–
CSCC[C@H](NC=O)C(=O)N[C@@H](CC(=O)O)C(=O)N[C@H](C(=O)NCC(=O)N[C@@H](CC(N)=O)C(=O)N[C@@H](C)C(=O)N[C@@H](CC(=O)O)C(=O)NP(=O)(OCCCN)OC[C@H]1O[C@@H](n2cnc3c(N)ncnc32)[C@H](O)[C@@H]1O)[C@@H](C)O (some centres unmarked) [R2D] (HELM PEPTIDE1{[O=C[*:2]].M.D.T.G.N.A.[NCCCOP(=O)(NC(=O)[C@H](CC(=O)O)N[*:1])OC[C@H]1O[C@@H](n2cnc3c(N)ncnc32)[C@H](O)[C@@H]1O]}$$$$V2.0)	42.4 ± 1.07	>100	17.71	14.11	83.9 ± 1.42	17.625	exhibited antibacterial effects	–	–	–	–
CSCC[C@H](NC=O)C(=O)N[C@@H](Cc1ccc(O)cc1)C(=O)N[C@H](C(=O)NCC(=O)N[C@@H](CC(N)=O)C(=O)N[C@@H](C)C(=O)N[C@@H](CC(=O)O)C(=O)NP(=O)(OCCCN)OC[C@H]1O[C@@H](n2cnc3c(N)ncnc32)[C@H](O)[C@@H]1O)[C@@H](C)O (some centres unmarked) [R2Y] (HELM PEPTIDE1{[O=C[*:2]].M.Y.T.G.N.A.[NCCCOP(=O)(NC(=O)[C@H](CC(=O)O)N[*:1])OC[C@H]1O[C@@H](n2cnc3c(N)ncnc32)[C@H](O)[C@@H]1O]}$$$$V2.0)	45.4 ± 1.18	>100	18.87	14.93	85.22 ± 0.72	18.591	exhibited antibacterial effects	–	–	–	–
O=C(N[C@H](CO)[C@H](O)c1ccc([N+](=O)[O-])cc1)C(Cl)Cl [Chloramphenicol, reference compound]	–	–	–	20.96	–	–	–	–	23.4	23.6	22.79
